The record followed here is patent US9340590B2 (priority 2011, dated 2016).

What all share (assay): cell-based
The target of one test is hNav1.7 (Homo sapiens, UniProt Q15858). The test is classed as cell-based. As to conditions: IonWorks Quattro, Use; read-out: IWQ Use Nav1.7. (In general: In patch-clamp work, channel activity is measured electrically.)
The target of the next test is hNav1.5 (Homo sapiens, UniProt Q14524). Conditions: IonWorks Quattro, Use; read-out: IWQ Use Nav1.5.
A further test deals with hNav1.3 (Homo sapiens, UniProt Q9NY46). As to conditions: IonWorks Quattro, Use; read-out: IWQ Use Nav1.3.

Molecules are shown by their SMILES. Positions of bridges follow the written chain, without caps; N, C: chain ends. Residues, ends and D or L forms follow the SMILES beside them.

Chain of hNav1.5 (Q14524 whole entry, looked up): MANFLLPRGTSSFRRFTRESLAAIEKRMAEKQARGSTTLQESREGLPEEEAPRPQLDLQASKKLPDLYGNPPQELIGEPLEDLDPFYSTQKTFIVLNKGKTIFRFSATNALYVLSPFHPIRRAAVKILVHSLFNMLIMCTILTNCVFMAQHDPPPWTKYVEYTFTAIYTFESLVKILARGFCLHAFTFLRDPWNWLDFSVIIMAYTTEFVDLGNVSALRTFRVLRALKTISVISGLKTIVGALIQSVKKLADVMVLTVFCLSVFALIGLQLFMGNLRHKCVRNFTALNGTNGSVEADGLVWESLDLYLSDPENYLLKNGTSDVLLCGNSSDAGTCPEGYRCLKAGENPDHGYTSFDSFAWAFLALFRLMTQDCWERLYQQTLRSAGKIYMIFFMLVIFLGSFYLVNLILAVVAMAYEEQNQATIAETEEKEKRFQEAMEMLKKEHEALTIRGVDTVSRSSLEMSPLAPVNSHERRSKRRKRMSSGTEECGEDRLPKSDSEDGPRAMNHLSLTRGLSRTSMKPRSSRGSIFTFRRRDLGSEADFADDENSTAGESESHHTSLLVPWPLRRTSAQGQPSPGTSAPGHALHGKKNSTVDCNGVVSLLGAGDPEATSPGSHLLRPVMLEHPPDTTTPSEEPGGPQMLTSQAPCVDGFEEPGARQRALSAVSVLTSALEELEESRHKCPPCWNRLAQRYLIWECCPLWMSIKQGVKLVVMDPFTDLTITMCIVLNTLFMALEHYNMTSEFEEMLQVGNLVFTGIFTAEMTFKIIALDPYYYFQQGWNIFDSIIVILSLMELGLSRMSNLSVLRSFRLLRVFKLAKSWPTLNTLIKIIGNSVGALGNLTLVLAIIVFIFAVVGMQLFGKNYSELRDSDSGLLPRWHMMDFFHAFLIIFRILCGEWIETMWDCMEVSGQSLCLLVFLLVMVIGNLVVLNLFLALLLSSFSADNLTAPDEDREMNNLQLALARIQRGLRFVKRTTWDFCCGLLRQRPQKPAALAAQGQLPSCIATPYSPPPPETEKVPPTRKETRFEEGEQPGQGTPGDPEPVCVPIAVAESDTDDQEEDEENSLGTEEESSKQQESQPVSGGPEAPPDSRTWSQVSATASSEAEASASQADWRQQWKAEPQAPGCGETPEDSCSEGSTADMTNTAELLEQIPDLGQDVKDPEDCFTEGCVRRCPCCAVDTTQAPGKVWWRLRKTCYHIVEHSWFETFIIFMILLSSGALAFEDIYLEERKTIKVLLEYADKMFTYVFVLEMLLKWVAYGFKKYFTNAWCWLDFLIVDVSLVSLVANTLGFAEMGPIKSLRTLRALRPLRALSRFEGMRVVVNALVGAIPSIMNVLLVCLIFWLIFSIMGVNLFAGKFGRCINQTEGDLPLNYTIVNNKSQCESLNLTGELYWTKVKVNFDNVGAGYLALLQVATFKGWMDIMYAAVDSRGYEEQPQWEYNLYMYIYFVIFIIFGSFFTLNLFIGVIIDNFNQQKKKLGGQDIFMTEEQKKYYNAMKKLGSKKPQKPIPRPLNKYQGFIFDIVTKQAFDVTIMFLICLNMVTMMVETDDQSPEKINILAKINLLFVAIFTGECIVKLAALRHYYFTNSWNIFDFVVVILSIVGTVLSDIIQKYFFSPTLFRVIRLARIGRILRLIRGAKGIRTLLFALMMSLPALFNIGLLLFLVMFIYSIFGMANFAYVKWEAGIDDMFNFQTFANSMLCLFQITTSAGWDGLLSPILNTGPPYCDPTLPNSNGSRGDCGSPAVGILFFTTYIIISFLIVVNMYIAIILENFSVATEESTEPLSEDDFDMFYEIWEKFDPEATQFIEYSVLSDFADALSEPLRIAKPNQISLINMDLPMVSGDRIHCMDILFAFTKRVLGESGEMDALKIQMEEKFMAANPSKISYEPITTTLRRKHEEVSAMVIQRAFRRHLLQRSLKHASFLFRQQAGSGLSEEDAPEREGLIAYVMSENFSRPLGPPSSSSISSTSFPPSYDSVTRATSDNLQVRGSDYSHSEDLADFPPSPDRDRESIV
Chain of hNav1.7 (Q15858 whole entry, looked up): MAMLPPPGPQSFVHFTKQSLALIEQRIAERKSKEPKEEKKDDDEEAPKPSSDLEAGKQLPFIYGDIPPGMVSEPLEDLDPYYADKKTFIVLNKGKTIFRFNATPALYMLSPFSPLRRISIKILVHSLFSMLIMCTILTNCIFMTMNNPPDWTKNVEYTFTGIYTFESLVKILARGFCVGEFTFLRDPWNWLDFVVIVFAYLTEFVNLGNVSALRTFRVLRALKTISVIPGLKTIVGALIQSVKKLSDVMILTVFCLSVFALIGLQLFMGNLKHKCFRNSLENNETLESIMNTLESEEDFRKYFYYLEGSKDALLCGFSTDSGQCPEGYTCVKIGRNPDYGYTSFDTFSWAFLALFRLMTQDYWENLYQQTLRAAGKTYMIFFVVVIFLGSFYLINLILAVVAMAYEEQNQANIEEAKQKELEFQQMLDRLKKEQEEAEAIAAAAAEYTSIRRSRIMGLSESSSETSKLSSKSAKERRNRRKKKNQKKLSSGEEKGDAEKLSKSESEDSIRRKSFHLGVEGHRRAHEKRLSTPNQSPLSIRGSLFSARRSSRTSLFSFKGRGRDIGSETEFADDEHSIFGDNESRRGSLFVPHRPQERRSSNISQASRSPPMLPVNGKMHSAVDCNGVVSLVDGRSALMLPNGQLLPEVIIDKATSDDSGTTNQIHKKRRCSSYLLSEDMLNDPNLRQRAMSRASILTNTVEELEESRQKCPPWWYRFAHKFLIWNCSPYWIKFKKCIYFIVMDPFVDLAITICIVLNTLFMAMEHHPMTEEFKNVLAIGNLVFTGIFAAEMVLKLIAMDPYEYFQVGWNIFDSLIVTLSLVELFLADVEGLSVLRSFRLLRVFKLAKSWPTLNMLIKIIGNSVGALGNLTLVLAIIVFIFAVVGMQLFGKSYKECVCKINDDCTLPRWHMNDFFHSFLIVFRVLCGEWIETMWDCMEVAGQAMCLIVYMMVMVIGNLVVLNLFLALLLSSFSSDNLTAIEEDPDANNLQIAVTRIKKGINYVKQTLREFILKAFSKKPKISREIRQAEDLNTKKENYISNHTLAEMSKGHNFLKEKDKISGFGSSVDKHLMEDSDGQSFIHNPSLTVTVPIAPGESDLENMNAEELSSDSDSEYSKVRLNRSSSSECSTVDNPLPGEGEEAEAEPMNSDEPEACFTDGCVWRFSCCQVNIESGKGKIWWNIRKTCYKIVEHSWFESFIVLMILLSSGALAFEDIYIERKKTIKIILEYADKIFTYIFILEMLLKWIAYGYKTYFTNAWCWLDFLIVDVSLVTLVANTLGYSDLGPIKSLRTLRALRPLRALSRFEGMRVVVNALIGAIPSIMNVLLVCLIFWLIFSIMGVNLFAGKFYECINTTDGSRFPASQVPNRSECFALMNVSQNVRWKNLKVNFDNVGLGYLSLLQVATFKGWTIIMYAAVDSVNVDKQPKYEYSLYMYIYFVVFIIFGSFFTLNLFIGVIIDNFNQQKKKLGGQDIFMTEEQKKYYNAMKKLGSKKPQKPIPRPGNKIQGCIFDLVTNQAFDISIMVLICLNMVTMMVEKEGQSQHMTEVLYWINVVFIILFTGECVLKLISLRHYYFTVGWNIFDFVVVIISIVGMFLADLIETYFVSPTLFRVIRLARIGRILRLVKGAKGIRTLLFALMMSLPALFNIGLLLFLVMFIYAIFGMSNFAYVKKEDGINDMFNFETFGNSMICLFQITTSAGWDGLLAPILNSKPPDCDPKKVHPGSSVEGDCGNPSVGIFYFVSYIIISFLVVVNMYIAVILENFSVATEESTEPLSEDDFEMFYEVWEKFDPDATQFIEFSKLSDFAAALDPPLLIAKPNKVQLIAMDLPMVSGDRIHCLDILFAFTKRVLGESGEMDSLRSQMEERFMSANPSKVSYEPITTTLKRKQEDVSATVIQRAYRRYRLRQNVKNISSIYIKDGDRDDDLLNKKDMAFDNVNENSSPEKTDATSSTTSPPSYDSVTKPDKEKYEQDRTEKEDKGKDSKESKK

On to `CC[C@H](C)[C@@H]1NC(=O)[C@@H]2CSSC[C@@H]3NC(=O)[C@H](C(C)C)NC(=O)[C@H](CC(C)C)NC(=O)[C@H](CC(N)=O)NC(=O)[C@@H]4CCCN4C(=O)[C@H](CCCNC(=N)N)NC(=O)[C@H](CSSC[C@H](NC(=O)[C@@H](N)CC(=O)O)C(=O)N[C@@H](CC(C)C)C(=O)NCC(=O)N[C@@H](Cc4ccccc4)C(=O)N[C@@H](CCSC)C(=O)N[C@@H](CCCNC(=N)N)C(=O)N[C@@H](CCCCN)C(=O)N2)NC(=O)[C@H](CSSC[C@@H](C(=O)N[C@@H](CCCCN)C(=O)N[C@@H](Cc2ccc(O)cc2)C(=O)N[C@H](C(=O)N[C@@H](Cc2ccccc2)C(N)=O)C(C)C)NC(=O)[C@H](Cc2c[nH]c4ccccc24)NC(=O)[C@H](CCCCN)NC(=O)[C@H](Cc2c[nH]cn2)NC(=O)[C@H]([C@@H](C)O)NC(=O)[C@H](CCCNC(=N)N)NC(=O)[C@H](CO)NC3=O)NC(=O)[C@H](CCCCN)NC(=O)[C@H](CC(=O)O)NC(=O)[C@H](CC(N)=O)NC(=O)[C@H](CC(C)C)NC(=O)[C@@H]2CCCN2C1=O` [compound 193] (H-DCLGFMRKCIPLNDKCCRPNLVCSRTHKWCKYVF-NH2; disulfide 2-17, 9-23, 16-30), for which the IC50 at hNav1.7 worked out at 80 nM; at hNav1.5 it was 6.83 µM; on hNav1.3, 71 nM.

On to `CC[C@H](C)[C@@H]1NC(=O)[C@@H]2CSSC[C@@H]3NC(=O)[C@H](C(C)C)NC(=O)[C@H](CC(C)C)NC(=O)[C@H](CC(N)=O)NC(=O)[C@@H]4CCCN4C(=O)[C@H](CCCNC(=N)N)NC(=O)[C@H](CSSC[C@H](NC(=O)[C@@H](N)CC(=O)O)C(=O)N[C@@H](CC(C)C)C(=O)NCC(=O)N[C@@H](Cc4ccccc4)C(=O)N[C@@H](CCSC)C(=O)N[C@@H](CCCNC(=N)N)C(=O)N[C@@H](CCCCN)C(=O)N2)NC(=O)[C@H](CSSC[C@@H](C(=O)N[C@@H](CCCCN)C(=O)N[C@@H](Cc2ccc(O)cc2)C(=O)N[C@H](C(=O)N[C@@H](Cc2ccccc2)C(N)=O)C(C)C)NC(=O)[C@H](Cc2c[nH]c4ccccc24)NC(=O)[C@H](CCCCN)NC(=O)[C@H](Cc2c[nH]cn2)NC(=O)[C@H]([C@@H](C)O)NC(=O)[C@H](CCCNC(=N)N)NC(=O)[C@H](CO)NC3=O)NC(=O)[C@H](CCCCN)NC(=O)[C@H](CC(=O)O)NC(=O)[C@H](CC(N)=O)NC(=O)CNC(=O)[C@@H]2CCCN2C1=O` [compound 194] (H-DCLGFMRKCIPGNDKCCRPNLVCSRTHKWCKYVF-NH2; disulfide 2-17, 9-23, 16-30), for which the results for the IC50 at hNav1.7, at hNav1.5 and on hNav1.3 were 75 nM, 8.76 µM and 47 nM, respectively.

In the case of `CC[C@H](C)[C@@H]1NC(=O)[C@@H]2CCCN2C(=O)[C@H]([C@@H](C)CC)NC(=O)[C@@H]2CSSC[C@@H]3NC(=O)[C@H](C(C)C)NC(=O)[C@H](CC(C)C)NC(=O)[C@H](CC(N)=O)NC(=O)[C@@H]4CCCN4C(=O)[C@H](CCCNC(=N)N)NC(=O)[C@H](CSSC[C@H](NC(=O)[C@@H](N)CC(=O)O)C(=O)N[C@@H](CC(C)C)C(=O)NCC(=O)N[C@@H](Cc4ccccc4)C(=O)N[C@@H](CCSC)C(=O)N[C@@H](CCCNC(=N)N)C(=O)N[C@@H](CCCCN)C(=O)N2)NC(=O)[C@H](CSSC[C@@H](C(=O)N[C@@H](CCCCN)C(=O)N[C@@H](Cc2ccc(O)cc2)C(=O)N[C@H](C(=O)N[C@@H](Cc2ccccc2)C(N)=O)C(C)C)NC(=O)[C@H](Cc2c[nH]c4ccccc24)NC(=O)[C@H](CCCCN)NC(=O)[C@H](Cc2c[nH]cn2)NC(=O)[C@H]([C@@H](C)O)NC(=O)[C@H](CCCNC(=N)N)NC(=O)[C@H](CO)NC3=O)NC(=O)[C@H](CCCCN)NC(=O)[C@H](CC(=O)O)NC(=O)[C@H](CC(N)=O)NC1=O` [compound 195] (H-DCLGFMRKCIPINDKCCRPNLVCSRTHKWCKYVF-NH2; disulfide 2-17, 9-23, 16-30), the IC50 was determined as 662 nM at hNav1.7, 18.3 µM on hNav1.5 and 607 nM on hNav1.3.

With `CC[C@H](C)[C@@H]1NC(=O)[C@@H]2CSSC[C@@H]3NC(=O)[C@H](C(C)C)NC(=O)[C@H](CC(C)C)NC(=O)[C@H](CC(N)=O)NC(=O)[C@@H]4CCCN4C(=O)[C@H](CCCNC(=N)N)NC(=O)[C@H](CSSC[C@H](NC(=O)[C@@H](N)CC(=O)O)C(=O)N[C@@H](CC(C)C)C(=O)NCC(=O)N[C@@H](Cc4ccccc4)C(=O)N[C@@H](CCSC)C(=O)N[C@@H](CCCNC(=N)N)C(=O)N[C@@H](CCCCN)C(=O)N2)NC(=O)[C@H](CSSC[C@@H](C(=O)N[C@@H](CCCCN)C(=O)N[C@@H](Cc2ccc(O)cc2)C(=O)N[C@H](C(=O)N[C@@H](Cc2ccccc2)C(N)=O)C(C)C)NC(=O)[C@H](Cc2c[nH]c4ccccc24)NC(=O)[C@H](CCCCN)NC(=O)[C@H](Cc2c[nH]cn2)NC(=O)[C@H]([C@@H](C)O)NC(=O)[C@H](CCCNC(=N)N)NC(=O)[C@H](CO)NC3=O)NC(=O)[C@H](CCCCN)NC(=O)[C@H](CC(=O)O)NC(=O)[C@H](CC(N)=O)NC(=O)[C@H]([C@@H](C)O)NC(=O)[C@@H]2CCCN2C1=O` [compound 196] (H-DCLGFMRKCIPTNDKCCRPNLVCSRTHKWCKYVF-NH2; disulfide 2-17, 9-23, 16-30), the figures for the IC50 on hNav1.7, at hNav1.5 and at hNav1.3 were 97 nM, 7.08 µM and 74 nM, respectively.

On to `CC[C@H](C)[C@@H]1NC(=O)[C@@H]2CSSC[C@@H]3NC(=O)[C@H](C(C)C)NC(=O)[C@H](CC(C)C)NC(=O)[C@H](CC(N)=O)NC(=O)[C@@H]4CCCN4C(=O)[C@H](CCCNC(=N)N)NC(=O)[C@H](CSSC[C@H](NC(=O)[C@@H](N)CC(=O)O)C(=O)N[C@@H](CC(C)C)C(=O)NCC(=O)N[C@@H](Cc4ccccc4)C(=O)N[C@@H](CCSC)C(=O)N[C@@H](CCCNC(=N)N)C(=O)N[C@@H](CCCCN)C(=O)N2)NC(=O)[C@H](CSSC[C@@H](C(=O)N[C@@H](CCCCN)C(=O)N[C@@H](Cc2ccc(O)cc2)C(=O)N[C@H](C(=O)N[C@@H](Cc2ccccc2)C(N)=O)C(C)C)NC(=O)[C@H](Cc2c[nH]c4ccccc24)NC(=O)[C@H](CCCCN)NC(=O)[C@H](Cc2c[nH]cn2)NC(=O)[C@H]([C@@H](C)O)NC(=O)[C@H](CCCNC(=N)N)NC(=O)[C@H](CO)NC3=O)NC(=O)[C@H](CCCCN)NC(=O)[C@H](CC(=O)O)NC(=O)[C@H](CC(N)=O)NC(=O)[C@H](Cc2ccc(O)cc2)NC(=O)[C@@H]2CCCN2C1=O` [compound 197] (H-DCLGFMRKCIPYNDKCCRPNLVCSRTHKWCKYVF-NH2; disulfide 2-17, 9-23, 16-30), for which the IC50 at hNav1.7 was determined as 98 nM; at hNav1.5, 6.92 µM; on hNav1.3 it was 42 nM.

For `CC[C@H](C)[C@@H]1NC(=O)[C@@H]2CSSC[C@@H]3NC(=O)[C@H](C(C)C)NC(=O)[C@H](CC(C)C)NC(=O)CNC(=O)[C@@H]4CCCN4C(=O)[C@H](CCCNC(=N)N)NC(=O)[C@H](CSSC[C@H](NC(=O)[C@@H](N)CC(=O)O)C(=O)N[C@@H](CC(C)C)C(=O)NCC(=O)N[C@@H](Cc4ccccc4)C(=O)N[C@@H](CCSC)C(=O)N[C@@H](CCCNC(=N)N)C(=O)N[C@@H](CCCCN)C(=O)N2)NC(=O)[C@H](CSSC[C@@H](C(=O)N[C@@H](CCCCN)C(=O)N[C@@H](Cc2ccc(O)cc2)C(=O)N[C@H](C(=O)N[C@@H](Cc2ccccc2)C(N)=O)C(C)C)NC(=O)[C@H](Cc2c[nH]c4ccccc24)NC(=O)[C@H](CCCCN)NC(=O)[C@H](Cc2c[nH]cn2)NC(=O)[C@H]([C@@H](C)O)NC(=O)[C@H](CCCNC(=N)N)NC(=O)[C@H](CO)NC3=O)NC(=O)[C@H](CCCCN)NC(=O)[C@H](CC(=O)O)NC(=O)[C@H](CC(N)=O)NC(=O)[C@H](CC(=O)O)NC(=O)[C@@H]2CCCN2C1=O` [compound 198] (H-DCLGFMRKCIPDNDKCCRPGLVCSRTHKWCKYVF-NH2; disulfide 2-17, 9-23, 16-30), the IC50 at hNav1.7 worked out at 229 nM; at hNav1.5, 9.75 µM; at hNav1.3 it was 126 nM.

`CC[C@H](C)[C@@H]1NC(=O)[C@@H]2CSSC[C@@H]3NC(=O)[C@H](C(C)C)NC(=O)[C@H](CC(C)C)NC(=O)[C@H](Cc4ccccc4)NC(=O)[C@@H]4CCCN4C(=O)[C@H](CCCNC(=N)N)NC(=O)[C@H](CSSC[C@H](NC(=O)[C@@H](N)CC(=O)O)C(=O)N[C@@H](CC(C)C)C(=O)NCC(=O)N[C@@H](Cc4ccccc4)C(=O)N[C@@H](CCSC)C(=O)N[C@@H](CCCNC(=N)N)C(=O)N[C@@H](CCCCN)C(=O)N2)NC(=O)[C@H](CSSC[C@@H](C(=O)N[C@@H](CCCCN)C(=O)N[C@@H](Cc2ccc(O)cc2)C(=O)N[C@H](C(=O)N[C@@H](Cc2ccccc2)C(N)=O)C(C)C)NC(=O)[C@H](Cc2c[nH]c4ccccc24)NC(=O)[C@H](CCCCN)NC(=O)[C@H](Cc2c[nH]cn2)NC(=O)[C@H]([C@@H](C)O)NC(=O)[C@H](CCCNC(=N)N)NC(=O)[C@H](CO)NC3=O)NC(=O)[C@H](CCCCN)NC(=O)[C@H](CC(=O)O)NC(=O)[C@H](CC(N)=O)NC(=O)[C@H](CC(=O)O)NC(=O)[C@@H]2CCCN2C1=O` [compound 199] (H-DCLGFMRKCIPDNDKCCRPFLVCSRTHKWCKYVF-NH2; disulfide 2-17, 9-23, 16-30): the IC50 at hNav1.7 was determined as 154 nM; on hNav1.5, 10.8 µM; at hNav1.3 it was 67 nM.

Regarding `CC[C@H](C)[C@@H]1NC(=O)[C@@H]2CSSC[C@@H]3NC(=O)[C@H](C(C)C)NC(=O)[C@H](CC(C)C)NC(=O)[C@H](Cc4ccc(O)cc4)NC(=O)[C@@H]4CCCN4C(=O)[C@H](CCCNC(=N)N)NC(=O)[C@H](CSSC[C@H](NC(=O)[C@@H](N)CC(=O)O)C(=O)N[C@@H](CC(C)C)C(=O)NCC(=O)N[C@@H](Cc4ccccc4)C(=O)N[C@@H](CCSC)C(=O)N[C@@H](CCCNC(=N)N)C(=O)N[C@@H](CCCCN)C(=O)N2)NC(=O)[C@H](CSSC[C@@H](C(=O)N[C@@H](CCCCN)C(=O)N[C@@H](Cc2ccc(O)cc2)C(=O)N[C@H](C(=O)N[C@@H](Cc2ccccc2)C(N)=O)C(C)C)NC(=O)[C@H](Cc2c[nH]c4ccccc24)NC(=O)[C@H](CCCCN)NC(=O)[C@H](Cc2c[nH]cn2)NC(=O)[C@H]([C@@H](C)O)NC(=O)[C@H](CCCNC(=N)N)NC(=O)[C@H](CO)NC3=O)NC(=O)[C@H](CCCCN)NC(=O)[C@H](CC(=O)O)NC(=O)[C@H](CC(N)=O)NC(=O)[C@H](CC(=O)O)NC(=O)[C@@H]2CCCN2C1=O` [compound 200] (H-DCLGFMRKCIPDNDKCCRPYLVCSRTHKWCKYVF-NH2; disulfide 2-17, 9-23, 16-30), the IC50 at hNav1.7 is 116 nM; at hNav1.5, 9.05 µM; at hNav1.3, 55 nM.
